{
  "source": "patent US20030095982A1",
  "about": "“Fraction of Cordyceps sinensis and method of isolation thereof” (priority 2001, published 2003)",
  "key": {"Ames test": {"assay": "Ames test", "type": "cell-based", "description": "(§1) B: Compound F8: This refers to F8 (for spectroscopic and structural data, see FIG. 2a, 2b, and 3). The molecular formula of compound F8 is C28H46O3. To confirm the potential applicability of the above fractions and to check for obvious toxicity or mutagenicity, Ames test and acute toxicity test were conducted on white mice (ICR-mice) using the F4 fraction or compound F8."}, "ICR mice": {"system": "ICR mice", "assay": "Acute toxicity test in ICR mice", "type": "in vivo", "conditions": "normal diet with 2% ratio, killed after 7 days", "excerpt": "The methodology used to carry out acute toxicity testing for this invention was as follows: ICR mice that had been fed on a normal diet with the above active compound included to constitute a 2% ratio were killed after 7 days in order to ascertain whether there was any evidence of toxicity.\nas §1"}, "[1]": {"system": "ovalbumin (OA) induced bronchial hyperresponsiveness", "assay": "Pulmonary function test, OA induced bronchial hyperresponsiveness in BNR", "type": "in vivo, brown Norway rats (BNR)", "excerpt": "The requirements for animal models include both specificity and the capacity for developing pulmonary histopathological lesions that are similar to those found in the corresponding human disorders. In view of the above considerations, three kinds of animal models were adopted for the experiments used in developing this invention. Two were invasive method and one was non-invasive method. The first and second invasive models were BNR and guinea pig asthma model induced by ovalbumin (OA). Twenty four either BNR (weight ranging from 250˜350 g) or guinea pig (380˜500 g) were divided into three groups. Each group consisted of 8 weight-matched male animals. Both group I and group II BNR were put into a closed chamber (30×30×16 cm plastic box) with two small holes, one serving as a gas inlet and the other as a gas outlet. Two mL of 1% OA was aerosolized by nebulizer and delivered continuously into the closed chamber with a gas delivery flow of 8 l/min. The animal was exposed to OA in the chamber for 10 minutes.\nA second sensitization was performed 7 days later using the same procedure. Another 7 days later, a provocation test was performed. To prevent anaphylaxis and possible death, the animals were pretreated with pyrinamine (10 mg/kg) intraperitoneally 30 minutes before the test. For provocation, the BNR inhaled 3 mL of 4% aerosolized OA by nebulizer for 10 minutes in a closed chamber, using the same procedure as for sensitization. Group I BNR or guinea pig were given Cordyceps sinensis active fraction F-4 4 mg/kg intraperitoneally 30 minutes before OA inhalation provocation. Group II control animals were treated in the same way as […], except that they were sensitized and challenged by breathing aerosolized saline instead of OA and without Cordyceps sinensis pretreatment.\nIn the Cordyceps sinensis treatment study, the protocol is similar to pretreatment except F-4 is administed after OA inhalation provocation.\nFor the lung function and acetylcholine provocation portion of the study, all animals were anesthetized with sodium pentobarbitone (50 mg/kg intraperitoneally). Jugular vein cannulation (PE-10 polyethylene tube filled with heparin, 1000 iu/mL in normal saline) and tracheostomy were performed. Lung function test was done 24 hours after the OA provocation test. The BNRs or pignea pigs were put in a body box (Model 6 Body Box, Buxco, Troy, N.Y., USA) in a supine position while the mice were put in a body box for mice (Anesthetized Body Box for Mice, Buxco, Troy, N.Y., USA). Gallamine triethiodide (4 mg/kg) was intravenously injected to induce paralysis and inhibit spontaneous breathing. A small animal ventilator set at a tidal volume of 6 mL/kg and a respiratory rate of 60 times/minute for the BNRs, 120 times/minute for the mice was used to ventilate the small animals. All animals were stable without spontaneous breathing 5 minutes after gallamine was given. Pulmonary function tests (PET) as described below were measured at baseline. Therefore, 25, 50, 75 and 100 μg/kg of acetylcholine (Ach) were given intravenously at 30 minute intervals. PETs were done 5 seconds after each dose of acetylcholine. Before each successive dose of Ach, the flow volume loop returned to baseline.\nThe airway opening pressure (PaO) was measured by a Gould pressure transducer at the tracheotomy. Respiratory flow was measured by a DP-45-14 differential pressure transducer. When tidal breathing was examined, 3-layer 325-mesh wire screen was used to measure the pressure difference. When a maximal forced expiratory maneuver (MFEM) was performed, a 6-layer 325-mesh wire screen was used to measure the pressure difference.\nFor the MFEM, the lungs were inflated to total lung capacity 9TLC, lung volume at PaO=35 cm H2O) 3 times; the inflation was regulated by a solenoid valve. At peak volume during the third inflation, the inflation valve was shut off and another solenoid valve was opened immediately for deflation. […]"}, "[2]": {"conditions": "baseline, 4 mg/Kg intraperitoneally 30 minutes before OA inhalation provocation, mean±SD"}, "[3]": {"conditions": "pretreated before OA inhalation provocation (group I) vs OA-treated (group II), Ach doses higher than 25 μg/kg"}},
  "data": [
    {"smiles": "CC(C)[C@@H](C)C=C[C@@H](C)[C@H]1CC[C@H]2C3=C[C@@H](O)[C@@]4(O)C[C@@H](O)CC[C@]4(C)[C@H]3CC[C@]12C", "note": "[F8, (24R)-ergosta-7,22-diene-3β, 5α, 6β,-triol]", "values": [
      {"measurement": "mutagenicity (Ames test)", "setting": "Ames test", "value": "no obvious evidence of toxicity or mutagenic properties"},
      {"measurement": "acute toxicity", "setting": "ICR mice", "value": "no obvious evidence of toxicity or mutagenic properties"},
      {"measurement": "Cdyn (total dynamic lung compliance)", "setting": "[1]; [2]", "value": "0.53 ± 0.05", "unit": "mL/cm H2O"},
      {"measurement": "MFEF 25%", "setting": "[1]; [2]", "value": "35.3 ± 4.5", "unit": "mL/s"},
      {"measurement": "MFEF 50%", "setting": "[1]; [2]", "value": "75.7 ± 4.6", "unit": "mL/s"},
      {"measurement": "MFEF 75%", "setting": "[1]; [2]", "value": "101.5 ± 4.9", "unit": "mL/s"},
      {"measurement": "PaO (airway opening pressure at tidal breathing)", "setting": "[1]; [2]", "value": "4.3 ± 0.6", "unit": "cmH2O"},
      {"measurement": "Peak flow", "setting": "[1]; [2]", "value": "105.6 ± 4.7", "unit": "mL/s"},
      {"measurement": "Total lung capacity", "setting": "[1]; [2]", "value": "15.4 ± 1.5", "unit": "mL"},
      {"measurement": "percentage of baseline MFEF 25% TLC, Ach dose response", "setting": "[1]; [3]", "value": "group II was significantly lower then group I"},
      {"measurement": "percentage of baseline MFEF 50% TLC, Ach dose response", "setting": "[1]; [3]", "value": "group II was significantly lower then group I"},
      {"measurement": "PD20 Ach (dose of Ach producing a 20% drop) for MFEF 50% and MFEF 25%", "setting": "[1]; treatment study (administered after OA inhalation provocation), group I vs OA-treated group II", "value": "significantly (p<0.001) lower in group II than in the other 2 groups"}
    ]}
  ]
}
